Experiment: mn = molality of the nth substance listed, in mol/kg
Conditions: 101 kPa, Liquid

O=C([O-])CC(O)(CC(=O)[O-])C(=O)[O-].[K+].[K+].[K+] [potassium citrate] + O
Conditions	mass density [kg/m3]	speed of sound [m/s]
288.15 K, m1 = 0.0185	1002.99	1470.8
288.15 K, m1 = 0.0304	1005.44	1473.4
288.15 K, m1 = 0.031	1005.55	1473.5
288.15 K, m1 = 0.0558	1010.5	1478.6
288.15 K, m1 = 0.0899	1017.35	1485.7
288.15 K, m1 = 0.1258	1024.33	1493.8
288.15 K, m1 = 0.1931	1037.25	1506.5
288.15 K, m1 = 0.2653	1050.77	1519.9
288.15 K, m1 = 0.3412	1064.51	1534.3
288.15 K, m1 = 0.4565	1084.71	1556.7
288.15 K, m1 = 0.5796	1105.19	1578.4
288.15 K, m1 = 0.7446	1131.73	1608.1
293.15 K, m1 = 0.0185	1002.05	1486.7
293.15 K, m1 = 0.0304	1004.5	1489.1
293.15 K, m1 = 0.031	1004.61	1489.3
293.15 K, m1 = 0.0558	1009.51	1494.3
293.15 K, m1 = 0.0899	1016.3	1501.1
293.15 K, m1 = 0.1258	1023.23	1509
293.15 K, m1 = 0.1931	1036.06	1521.2
293.15 K, m1 = 0.2653	1049.48	1534.2
293.15 K, m1 = 0.3412	1063.13	1548.1
293.15 K, m1 = 0.4565	1083.21	1569.7
293.15 K, m1 = 0.5796	1103.58	1590.6
293.15 K, m1 = 0.7446	1129.91	1619.4
298.15 K, m1 = 0.0185	1000.87	1500.8
298.15 K, m1 = 0.0304	1003.29	1503.2
298.15 K, m1 = 0.031	1003.4	1503.3
298.15 K, m1 = 0.0558	1008.27	1508.1
298.15 K, m1 = 0.0899	1015.02	1514.7
298.15 K, m1 = 0.1258	1021.9	1522.4
298.15 K, m1 = 0.1931	1034.64	1534.3
298.15 K, m1 = 0.2653	1047.99	1546.8
298.15 K, m1 = 0.3412	1061.56	1560.2
298.15 K, m1 = 0.4565	1081.54	1581.2
298.15 K, m1 = 0.5796	1101.81	1601.3
298.15 K, m1 = 0.7446	1128.11	1629.2
303.15 K, m1 = 0.0185	999.449	1513
303.15 K, m1 = 0.0304	1001.86	1515.4
303.15 K, m1 = 0.031	1001.97	1515.5
303.15 K, m1 = 0.0558	1006.81	1520.2
303.15 K, m1 = 0.0899	1013.52	1526.6
303.15 K, m1 = 0.1258	1020.35	1534.1
303.15 K, m1 = 0.1931	1033.03	1545.6
303.15 K, m1 = 0.2653	1046.31	1557.7
303.15 K, m1 = 0.3412	1059.82	1570.7
303.15 K, m1 = 0.4565	1079.71	1591.1
303.15 K, m1 = 0.5796	1099.9	1610.6
303.15 K, m1 = 0.7446	1126.1	1637.7
308.15 K, m1 = 0.0185	997.814	1523.6
308.15 K, m1 = 0.0304	1000.21	1525.9
308.15 K, m1 = 0.031	1000.32	1526.1
308.15 K, m1 = 0.0558	1005.14	1530.6
308.15 K, m1 = 0.0899	1011.81	1536.8
308.15 K, m1 = 0.1258	1018.62	1544.2
308.15 K, m1 = 0.1931	1031.24	1555.3
308.15 K, m1 = 0.2653	1044.46	1567.1
308.15 K, m1 = 0.3412	1057.91	1579.7
308.15 K, m1 = 0.4565	1077.72	1599.7
308.15 K, m1 = 0.5796	1097.85	1618.5
308.15 K, m1 = 0.7446	1123.97	1644.9
313.15 K, m1 = 0.0185	995.982	1532.7
313.15 K, m1 = 0.0304	998.37	1534.9
313.15 K, m1 = 0.031	998.478	1535
313.15 K, m1 = 0.0558	1003.28	1539.5
313.15 K, m1 = 0.0899	1009.92	1545.5
313.15 K, m1 = 0.1258	1016.7	1552.8
313.15 K, m1 = 0.1931	1029.28	1563.6
313.15 K, m1 = 0.2653	1042.44	1575
313.15 K, m1 = 0.3412	1055.86	1587.3
313.15 K, m1 = 0.4565	1075.6	1606.9
313.15 K, m1 = 0.5796	1095.67	1625.1
313.15 K, m1 = 0.7446	1121.72	1650.8
